Experimental data taken from patent publication US9532962B2, “Medium-chain length fatty acids and glycerides as nephroprotection agents” (priority 2007, dated 2017).
Entries after “also recorded” stand apart in the source; their conditions may differ.

Legend:
C57B1/6 mice = test: Doxorubicin-induced nephrotoxicity model; format: in vivo; details: for histological kidney lesions score: 10 mg/kg i.v. at day 0; for histological kidney lesions score at the tubular level induced by doxorubicin / serum urea induced by doxorubicin: oral; for serum creatinine induced by doxorubicin: FIG. 9; for serum urea induced by doxorubicin: FIG. 10
Method: C57B1/6 mice (6-10 week-old) were treated with sodium caprate prophylacticly from day −3 to day 10 or treated therapeutically from day 1 to 10. Nephrotoxicity was induced by an intravenous injection of 10 mg/kg of doxorubicin at day 0, Serum creatinine and urea were monitored at day 4, 7 and 11.

[1] = tested on: 5/6 nephrectomized (Nx) rats; test: Kidney protection in 5/6 nephrectomized (Nx) rat model; format: in vivo, Wistar rats
Method: (§1) Male 6 week-old Wistar rats were subjected to 5/6 nephrectomy or sham operations. Under ketamine anesthesia (60 to 100 mg/kg, i.p.), renal ablation was achieved by removing two-thirds of the left kidney followed by a right unilateral nephrectomy 7 days later. Sham rats underwent exposition of the kidneys and removal of the perirenal fat. Twenty-one days after the first operation, rats were assigned in the study if the serum creatinine was greater than 125 μmol/L indicating a dysfunction of the kidney. Animals that underwent the sham operation were given vehicle (saline) and were used as controls. Nx animals were divided in groups receiving the vehicle or sodium caprate. Saline or sodium caprate was given by gastric gavage once daily for 35 days. Serum creatinine was measured weekly in order to assess the severity of this end-stage renal disease model. Rats were sacrificed at day 63.

[2] = tested on: 5/6 nephrectomized (Nx) rats; test: Heart protection (blood pressure) in 5/6 nephrectomized (Nx) rat model; format: in vivo; details: RTBP 2000, FIG. 8
Method: as §1

[3] = prophylactic (pre-doxorubicin) treatment
[4] = therapeutic (post-doxorubicin) treatment

Structure (SMILES) | histological lesions in affected tubular regions (micrographs) (C57B1/6 mice; 10 mg/kg i.v. at day 0, 400×) | histological kidney lesions score (C57B1/6 mice; day 7 and 11, FIG. 11) | histological kidney lesions score (C57B1/6 mice; day 12, FIG. 13) | kidney structure (density, glomerulus and tubular structure), histological micrographs ([1]; 40×, compared to control Nx rats, FIG. 6) | fibrosis and necrosis of the kidney tissue, histological micrographs ([1]; 400×, glomerulus level, FIG. 7) | serum creatinine ([1]; compared to control Nx rats, FIG. 5) | urine creatinine ([1]; day 21 to day 42, FIG. 4) | animals showing reduction of initial serum creatinine concentration ([1]; sodium caprate-treated Nx rats, FIG. 2) | blood pressure [2] | histological kidney lesions score at the tubular level induced by doxorubicin (C57B1/6 mice; [3]) | serum creatinine induced by doxorubicin (C57B1/6 mice; prophylactic treatment day -3 to day 10, oral) | protection of kidney against doxorubicin toxicity, histological micrographs (C57B1/6 mice; prophylactic treatment, 400×) | serum urea induced by doxorubicin (C57B1/6 mice; prophylactic treatment) | histological kidney lesions score at the tubular level induced by doxorubicin (C57B1/6 mice; [4]) | protection of kidney against doxorubicin toxicity, histological micrographs (C57B1/6 mice; therapeutic treatment) | serum creatinine induced by doxorubicin (C57B1/6 mice; therapeutic treatment day 1 to 10, oral) | serum urea induced by doxorubicin (C57B1/6 mice; therapeutic treatment)
COc1cccc2c1C(=O)c1c(O)c3c(c(O)c1C2=O)C[C@@](O)(C(=O)CO)C[C@@H]3O[C@H]1C[C@H](N)[C@H](O)[C@H](C)O1 [doxorubicin, reference compound] | induces kidney cell apoptosis, fibrosis, sclerosis, and accumulation of proteins; also recorded: induces kidney cell apoptosis, fibrosis, sclerosis and accumulation of proteins | induces significant kidney lesions | induces significant kidney lesions |  |  |  |  |  |  |  |  |  |  |  |  |  | 
CCCCCCCCCC(=O)[O-].[Na+] [sodium caprate] |  |  |  | more conserved | reduces fibrosis and necrosis | significant (p=0.00006) decrease | significant (p=0.0002) increase | 80% | significant decrease | reduce the kidney lesions | inhibits the increase of serum creatinine induced by doxorubicin to a similar level observed in control mice | protects kidney against doxorubicin toxicity | inhibits the increase of serum urea induced by doxorubicin to a similar level observed in control mice | reduce the kidney lesions | protects kidney against doxorubicin toxicity | reduces the serum creatinine level | inhibits the increase of serum urea induced by doxorubicin to a similar level observed in control mice
CCCCCCCCCC(=O)OCC(COC(=O)CCCCCCCCC)OC(=O)CCCCCCCCC [tricaprin] |  |  |  |  |  |  |  |  |  | reduces the kidney lesions |  | protects kidney against doxorubicin toxicity |  | reduces the kidney lesions | protects kidney against doxorubicin toxicity |  | 
